According to the NIST ThermoML archive (doi:10.1021/acs.jced.6b00430):

Assay: xn = mol fraction of the nth substance listed
Details: 100 kPa, Liquid; for mass density: Vibrating tube method; for electrical conductivity: Alternating current cell with electrodes; for viscosity: Concentric cylinders viscometry

O=[PH](O)O [phosphonic acid] + CN(C)C=O
Details	electrical conductivity [S/m]	mass density [kg/m3]	viscosity [mPa·s]
318.15 K, x1 = 0.421	–	1170.67	–
318.15 K, x1 = 0.4479	–	1189.61	–
318.15 K, x1 = 0.4707	–	1204.42	–
318.15 K, x1 = 0.493	–	1218.59	–
318.15 K, x1 = 0.5074	–	1227.51	–
318.15 K, x1 = 0.5196	–	1237.92	–
318.15 K, x1 = 0.5429	–	1253.45	–
318.15 K, x1 = 0.5724	–	1275.06	–
318.15 K, x1 = 0.5925	–	1289.1	–
318.15 K, x1 = 0.6245	–	1311.81	–
318.15 K, x1 = 0.6554	–	1339.01	–
318.15 K, x1 = 0.6753	–	1347.93	–
318.15 K, x1 = 0.6923	–	1362.29	–
318.15 K, x1 = 0.7142	–	1382.56	–
318.15 K, x1 = 0.725	–	1385.03	–
318.15 K, x1 = 0.7592	–	1416.55	–
318.15 K, x1 = 0.7694	–	1427.77	–
318.15 K, x1 = 0.7845	–	1434.51	–
328.15 K, x1 = 0.0911	–	962.58	–
328.15 K, x1 = 0.1181	0.0815	–	–
328.15 K, x1 = 0.1365	–	987.46	–
328.15 K, x1 = 0.1798	–	1011.93	–
328.15 K, x1 = 0.1829	–	1013.72	–
328.15 K, x1 = 0.1973	–	–	1.92
328.15 K, x1 = 0.2293	–	1040.86	–
328.15 K, x1 = 0.2507	–	–	2.88
328.15 K, x1 = 0.291	–	1078.19	–
328.15 K, x1 = 0.2984	0.173	–	4.07
328.15 K, x1 = 0.3115	–	–	4.29
328.15 K, x1 = 0.3298	0.183	1102.77	–
328.15 K, x1 = 0.3442	–	1111.65	–
328.15 K, x1 = 0.3491	–	–	6.02
328.15 K, x1 = 0.3712	–	1129.07	–
328.15 K, x1 = 0.3937	–	1143.78	–
328.15 K, x1 = 0.3968	0.275	–	8.65
328.15 K, x1 = 0.3988	–	–	8.5
328.15 K, x1 = 0.4107	–	1155.04	9.62
328.15 K, x1 = 0.421	–	1161.92	–
328.15 K, x1 = 0.4479	0.316	1180.89	12.3
328.15 K, x1 = 0.4707	–	1195.74	–
328.15 K, x1 = 0.493	–	1211.17	–
328.15 K, x1 = 0.4968	–	–	16.2
328.15 K, x1 = 0.5074	–	1221.28	16
328.15 K, x1 = 0.5196	–	1229.86	–
328.15 K, x1 = 0.5429	–	1246.5	–
328.15 K, x1 = 0.5503	–	–	22
328.15 K, x1 = 0.5724	–	1267.84	–
328.15 K, x1 = 0.5761	0.512	–	24.9
328.15 K, x1 = 0.5925	–	1282.63	–
328.15 K, x1 = 0.5993	–	–	25.5
328.15 K, x1 = 0.6245	–	1306.4	–
328.15 K, x1 = 0.6261	–	–	29.5
328.15 K, x1 = 0.6316	0.71	–	30.1
328.15 K, x1 = 0.6478	–	–	32.2
328.15 K, x1 = 0.6554	0.802	1330.73	32
328.15 K, x1 = 0.682	1.07	–	34.4
328.15 K, x1 = 0.7142	–	1375.29	37.1
328.15 K, x1 = 0.725	–	1383.85	–
328.15 K, x1 = 0.7592	–	1411.1	–
328.15 K, x1 = 0.7694	1.77	1419.7	39.8
328.15 K, x1 = 0.7832	1.91	–	40.5
328.15 K, x1 = 0.7845	–	1430.74	–
338.15 K, x1 = 0.2984	0.212	–	–
338.15 K, x1 = 0.3298	0.226	–	–
338.15 K, x1 = 0.3968	0.351	–	–
338.15 K, x1 = 0.4479	0.356	–	–
338.15 K, x1 = 0.5761	0.642	–	–
338.15 K, x1 = 0.6316	0.891	–	–
